Data from patent US12458677B2, “Method for preparing Gynostemma pentaphyllum leaf extract and Gynostemma pentaphyllum leaf extract prepared thereby” (BIONIC TRADING CORPORATION, priority 2022, dated 2025).

Tests used:
Atrogin-1 = Atrogin-1 mRNA expression (RT-PCR) in TNF-α-treated L6 myotubes; assay type: cell-based; conditions: TNF-α 50 ng/ml alone, 6 hours
Description: (§1) L6 myoblasts (ATCC) were seeded onto a 6-well plate at 2×10^5 cell/mL and then cultured in DMEM (Hyclone) containing 10% FBS (Hyclone). When the cell density reached about 80-85%, the L6 cells were differentiated into myotubes by removing the medium from the well and replacing with DMEM (Hyclone) containing 2% HS (Hyclone). The differentiation was conducted for a total of 6 days while replacing with a fresh medium every other day. After the differentiation, the Gynostemma pentaphyllum leaf extract of Examples or Comparative Example was dissolved in DMEM containing 50 ng/mL of TNF-α to a concentration of 40 μg/mL and treated to the cells. 6 hours later, total RNAs were isolated using a TRIzol reagent (Takara, Osaka, Japan). The isolated total RNAs were quantified using NanoDrop 1000 (Thermo Fisher Scientific Inc., Waltham, MA, USA). 16 μL of the quantified RNAs were mixed with a reverse transcriptase premix (ELPIS-Biotech) and cDNAs were synthesized under the condition of 55 minutes at 42° C. and 15 minutes at 70° C. using a PCR machine (Gene Amp PCR System 2700; Applied Biosystems, Foster City, CA, USA). […]

MuRF-1 = MuRF-1 mRNA expression (RT-PCR) in TNF-α-treated L6 myotubes; assay type: cell-based; conditions: TNF-α 50 ng/ml alone, 6 hours
Description: as §1

## TNF-α
Atrogin-1
  Atrogin-1 (% of control group): 248.5 ± 26.4 % of control group
MuRF-1
  MuRF-1 (% of control group): 411.5 ± 32.7 % of control group
